Reference: patent EP0215300A2, “Use of diazaphosphorines for combating endoparasites” (BAYER AG, priority 1985, dated 1987)

Assays:
Caenorhabditis elegans = assay: In vitro nematode test (inhibition of reproduction); format: cell-based; settings: 168 h; concentration at which reproduction is prevented; 7 days at 22°C; E.coli suspension in M9 buffer; read-out: Minimale effektive Dosis
Description: 10-^4 g Wirkstoff werden in 1 ml Wasser oder 0,1 ml Dimethylsulfoxid (DMSO) gelöst. Diese Lösung wurde auf eine Replica-Platte gegeben. Dazu wurden 2 ml einer E.coli-Suspension gegeben, zu der man 10-20 weibliche Tiere oder Larven von Caenorhabditis elegans in 0,5 ml sterile M9 Pufferlösung gegeben hat. Die E.coli-Suspension wurde hergestellt indem man 300 ml einer Ubernachtkultur eines Uracil-bedürftigen E.coli-Stammes mit 1,8 1 steriler M9 Pufferlösung versetzte.
Der Versuchsansatz wurde 7 Tage bei 22°C inkubiert und danach ausgewertet. Es wurde bewertet inwieweit der Wirkstoff die Vermehrung beeinträchtigt und die Konzentration angegeben bei der die Vermehrung verhindert wird. Dabei wurden folgende Ergebnisse erhalten: • In vitro Nematodentest

Strongyloides ratti = assay: In vivo nematode test in experimentally infected rats; settings: rats (Ratten), oral by gavage on three consecutive days from day 7 after infection, killed day 13, at least 95 % of parasites killed, read-out: minimale effektive Dosis
Text: (§1) Experimentell mit Strongyloides ratti infizierte Ratten werden 7 Tage nach der Infektion an drei aufeinanderfolgenden Tagen oral mittels Schlundsonde behandelt. Die Tiere werden 13 Tage nach der Infektion getötet und die Zahl der Parasiten bestimmt. Es wird die Wirkstoffkonzentration angegeben, bei der mindestens 95 % der Parasiten abgetötet wurden (minimale effektive Dosis): […]

Heterakis spumora = assay: In vivo nematode test in experimentally infected mice; settings: Mus musculus; mice (Mäuse); oral by gavage on four consecutive days from day 32 after infection; killed day 39; at least 95 % of parasites killed; read-out: minimale effektive Dosis
Text: as §1, with “Heterakis spumora” for “Strongyloides ratti”, “Mäuse” for “Ratten”, “32” for “7”, “vier” for “drei”, “39” for “13”, “angegeben” for “angegeben,”

Hymenolepis nana = assay: as above; settings: Rodentolepis nana; mice (Mäuse); oral by gavage on four consecutive days from day 10 after infection; killed day 17; at least 95 % of parasites killed; read-out: minimale effektive Dosis
Text: Experimeltell mit Hymenolepis nana infizierte Mäuse werden 10 Tage nach der Infektion an vier aufeinanderfolgenden Tagen oral mittels Schlundsonde behandelt. Die Tiere werden 17 Tage nach Infektion getötet und die Zahl der Parasiten bestimmt. Es wird die Wirkstoffkonzentration angegeben, bei der mindestens 95 % der Parasiten abgetötet wurden (minimale effektive Dosis): […]

| SMILES | minimal effective concentration (Caenorhabditis elegans) [µg/mL] | further results |
| --- | --- | --- |
| CN1C(=O)C(C(=O)Nc2cccc(C(F)(F)F)c2)C(=O)N(C)P1(=O)Oc1ccc(Cl)cc1 (stereo not shown) [Beispiel 1] | 10 | – |
| CC(C)N1C(=O)C(C(=O)Nc2cccc(Cl)c2)C(=O)N(C(C)C)P1(=O)Oc1cccc(Cl)c1 (stereo not shown) [Beispiel 2] | 100 | – |
| CC(C)N1C(=O)C(C(=O)Nc2cccc(C(F)(F)F)c2)C(=O)N(C(C)C)P1(=O)Oc1cccc(Cl)c1 (stereo not shown) [Beispiel 3] | 100 | – |
| CN1C(=O)C(C(=O)Nc2ccc(C(F)(F)F)cc2)C(=O)N(C)P1(=O)Oc1ccc(Cl)cc1 (stereo not shown) [Beispiel 6] | 1 | – |
| CN1C(=O)C(C(=O)Nc2ccc(C(F)(F)F)cc2)C(=O)N(C)P1(=O)Oc1ccccc1 (stereo not shown) [Beispiel 8] | 10 | minimal effective dose (Strongyloides ratti): 25 mg/kg |
| CN1C(=O)C(C(=O)Nc2ccc(Cl)cc2)C(=O)N(C)P1(=O)Oc1ccc(Cl)cc1 (stereo not shown) [Beispiel 10] | 1 | – |
| CN1C(=O)C(C(=O)Nc2cccc(Cl)c2)C(=O)N(C)P1(=O)Oc1cccc(Cl)c1 (stereo not shown) [Beispiel 11] | 1 | minimal effective dose (Strongyloides ratti): 10 mg/kg |
| CN1C(=O)C(C(=O)Nc2cccc(Cl)c2)C(=O)N(C)P1(=O)Oc1ccc(Cl)cc1 (stereo not shown) [Beispiel 12] | 100 | – |
| O=C(Nc1ccc(Cl)c(Cl)c1)C1C(=O)N(c2ccccc2)P(=O)(Oc2ccc(Cl)cc2)N(c2ccccc2)C1=O (stereo not shown) [Beispiel 13] | 10 | – |
| O=C(Nc1ccc(Cl)c(Cl)c1)C1C(=O)N(c2ccccc2)P(=O)(Oc2ccccc2)N(c2ccccc2)C1=O (stereo not shown) [Beispiel 14] | 100 | – |
| CC(C)N1C(=O)C(C(=O)Nc2ccc(C(F)(F)F)cc2)C(=O)N(C)P1(=O)Oc1cccc(Cl)c1 (stereo not shown) [Beispiel 17] | 10 | – |
| CC(C)N1C(=O)C(C(=O)Nc2cccc(Cl)c2)C(=O)N(C)P1(=O)Oc1cccc(Cl)c1 (stereo not shown) [Beispiel 18] | 10 | – |
| CCN1C(=O)C(C(=O)Nc2cccc(C(F)(F)F)c2)C(=O)N(C)P1(=O)Oc1cccc(Cl)c1 (stereo not shown) [Beispiel 20] | 10 | minimal effective dose (Strongyloides ratti): 250 mg/kg |
| CC(C)N1C(=O)C(C(=O)Nc2cccc(C(F)(F)F)c2)C(=O)N(C)P1(=O)Oc1cccc(Cl)c1 (stereo not shown) [Beispiel 22] | 10 | minimal effective dose (Heterakis spumora): 250 mg/kg; minimal effective dose (Hymenolepis nana): 250 mg/kg |
| Cc1cccc(OP2(=O)N(C)C(=O)C(C(=O)Nc3cccc(C(F)(F)F)c3)C(=O)N2C(C)C)c1 (stereo not shown) [Beispiel 27] | 10 | – |
| Cc1cccc(OP2(=O)N(C)C(=O)C(C(=O)Nc3cccc(Cl)c3)C(=O)N2C(C)C)c1 (stereo not shown) [Beispiel 28] | 100 | – |
| Cc1cccc(OP2(=O)NC(=O)C(C(=O)Nc3cccc(C(F)(F)F)c3)C(=O)N2C)c1 (stereo not shown) [Beispiel 34] | 100 | – |
| Cc1cccc(OP2(=O)N(C)C(=O)C(C(=O)Nc3ccc(Cl)c(Cl)c3)C(=O)N2C(C)C)c1 (stereo not shown) [Beispiel 35] | 10 | – |
| CN1C(=O)C(C(=O)Nc2cccc(C(F)(F)F)c2)C(=O)N(C)P1(=O)Oc1cccc(Cl)c1 (stereo not shown) [Beispiel 36] | 10 | – |
| CN1C(=O)C(C(=O)Nc2ccc(Cl)c(Cl)c2)C(=O)N(c2ccccc2)P1(=O)Oc1ccc(Cl)cc1 (stereo not shown) [Beispiel 37] | 10 | – |
